Patent publication US20250115739A1, “COMPOUND, RUBBER BLEND CONTAINING THE COMPOUND, VEHICLE TIRE COMPRISING THE RUBBER BLEND IN AT LEAST ONE COMPONENT, PROCESS FOR PREPARING THE COMPOUND, AND USE OF THE COMPOUND AS AN ANTI-AGING AGENT AND/OR ANTIOXIDANT” (Continental Reifen Deutschland GmbH, priority 2022, published 2025)

Assay: Measurement of oxidation induction time (OIT) by DSC
Conditions: for Time [min] at 180° C. (time to oxidation, oxidation induction time): isothermal 180° C., O2 atmosphere 50 ml/min, with polyisoprene LIR-50, DSC peak
Method: The compound of formula III) was investigated under laboratory conditions for its potential protective effect as an aging stabilizer by measurement of the oxidation induction time.
To this end the compounds of formula III) and 6-PPD in each case together with a polymer (liquid synthetic polyisoprene (IR), LIR-50, Kuraray, weight average molecular weight distribution Mw=54 000 g/mol, glass transition temperature Tg=−63° C.) were heated at constant temperature (180° C.) until onset of oxidation (start temperature 35° C., heating to 170° C. at a heating rate of 20 K/min (kelvin per minute), heating to 180° C. at a heating rate of 1 K/min; purge gas: nitrogen (N2), volume flow 50 ml/min).
The specimen was kept under isothermal conditions at 180° C. under an N2 atmosphere for 5 minutes and the atmosphere was then switched to an 02 atmosphere (volume flow 50 ml/min).
Oxidation was determined via a peak using DSC (differential scanning calorimetry).
The time in minutes to oxidation was measured.

Row | Compound | Time [min] at 180° C. (time to oxidation, oxidation induction time) | protective effect as aging stabilizer (from OIT) (taking into account measurement accuracy of 10 minutes)
1 | CC1CCC2C(C1)Nc1ccc(Nc3ccccc3)cc1C2(C)C (stereo not drawn) [Formula III), 6,9,9-trimethyl-N-phenyl-5,6,7,8,8a,9,10,10a-octahydroacridin-2-amine] | 93 ± 10 min | protective effect comparable to 6PPD
2 | CC(C)CC(C)Nc1ccc(Nc2ccccc2)cc1 (stereo not drawn) [Substance 6PPD, N-(1,3-dimethylbutyl)-N′-phenyl-p-phenylenediamine, reference compound] | 116 ± 10 min | 
